Reference: patent US7700609B2, “Compositions useful as inhibitors of protein kinases” (Vertex Pharmaceuticals Incorporated, priority 2003, dated 2010)

Target: T1, Itk (Homo sapiens, UniProt Q08881)
T1 sequence (Q08881 1-620): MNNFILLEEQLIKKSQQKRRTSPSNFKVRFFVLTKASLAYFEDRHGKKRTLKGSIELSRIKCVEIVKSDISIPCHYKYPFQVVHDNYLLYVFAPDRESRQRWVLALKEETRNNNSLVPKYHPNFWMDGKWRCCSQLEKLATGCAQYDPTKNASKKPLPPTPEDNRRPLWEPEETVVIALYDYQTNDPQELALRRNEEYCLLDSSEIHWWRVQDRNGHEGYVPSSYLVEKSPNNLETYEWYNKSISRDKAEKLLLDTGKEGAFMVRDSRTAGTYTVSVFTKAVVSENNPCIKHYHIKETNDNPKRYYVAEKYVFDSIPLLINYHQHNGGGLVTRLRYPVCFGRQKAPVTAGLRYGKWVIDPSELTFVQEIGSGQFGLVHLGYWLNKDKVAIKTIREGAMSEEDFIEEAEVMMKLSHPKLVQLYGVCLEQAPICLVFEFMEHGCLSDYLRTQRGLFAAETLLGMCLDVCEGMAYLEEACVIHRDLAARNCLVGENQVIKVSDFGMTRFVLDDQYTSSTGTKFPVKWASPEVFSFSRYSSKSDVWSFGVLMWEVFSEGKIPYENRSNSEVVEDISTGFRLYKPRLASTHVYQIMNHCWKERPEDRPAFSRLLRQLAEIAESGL
Assay: Itk inhibition assay: spectrophotometric coupled enzyme (Method C)
Type: biochemical
Details: 100 μM ATP, read-out: Ki in the standard coupled enzyme assay (Method C)
Method: The compounds of the present invention were evaluated as inhibitors of human Itk kinase using either a radioactivity-based, spectrophotometric or alphascreen assay.
Compounds were screened for their ability to inhibit Itk using a standard coupled enzyme assay (Fox et al., Protein Sci., (1998) 7, 2249).
Assays were carried out in a mixture of 20 mM MOPS (pH 7.0), 10 mM MgCl2, 0.1% BSA, 1 mM DTT, 2.5 mM phosphoenolpyruvate, 300 μM NADH, 30 μg/ml pyruvate kinase and 10 μg/ml lactate dehydrogenase. Final substrate concentrations in the assay were 100 μM ATP (Sigma Chemicals) and 3 μM peptide (Biotinylated SAM68 Δ332-443). Assays were carried out at 25° C. and in the presence of 10 nM Itk.
An assay stock buffer solution was prepared containing all of the reagents listed above, with the exception of ATP and the test compound of interest. 60 μl of the stock solution was placed in a 96 well plate followed by addition of 2 μl of DMSO stock containing serial dilutions of the test compound (typically starting from a final concentration of 15 μM). The plate was preincubated for 10 minutes at 25° C. and the reaction initiated by addition of 5 μl of ATP. Initial reaction rates were determined with a Molecular Devices SpectraMax Plus plate reader over a 10 minute time course. IC50 and Ki data were calculated from non-linear regression analysis using the Prism software package (GraphPad Prism version 3.0cx for Macintosh, GraphPad Software, San Diego Calif., USA).

Row | SMILES | Ki [nM]
1 | COC[C@H](C)NC(=O)c1cc2c(ccc3cnc(Nc4cccc(S(C)(=O)=O)c4)nc32)s1 [Compound V-153] | < 1000
2 | O=C(c1cc2c(ccc3cnc(Nc4cccc(N5CCOCC5)c4)nc32)s1)N1CCNCC1 [Compound V-112] | < 1000
3 | O=C(c1cc2c(ccc3cnc(Nc4cccc(F)c4)nc32)s1)N1CCOCC1 [Compound V-61] | < 1000
4 | CN1CCN(C(=O)c2cc3c(ccc4cnc(Nc5cccc(-c6ccccc6)c5)nc43)s2)CC1 [Compound V-59] | < 1000
5 | CN(C)C(=O)c1cc2c(ccc3cnc(Nc4cccc(C(C)(C)C)c4)nc32)s1 [Compound V-104] | < 1000
6 | NC1CCN(C(=O)c2cc3c(ccc4cnc(Nc5cccc(-c6ccccc6)c5)nc43)s2)C1 (centres unmarked) [Compound V-73] | < 1000
7 | CC(C)Oc1cccc(Nc2ncc3ccc4sc(C(=O)N5CCC(N)C5)cc4c3n2)c1 (centres unmarked) [Compound V-103] | < 1000
8 | CC1CC(C)CN(CCC(=O)Nc2cccc(Nc3ncc4ccc5sc(C(=O)N6CCOCC6)cc5c4n3)c2)C1 (centres unmarked) [Compound V-78] | < 1000
9 | CC(=O)N1CCN(C(=O)c2cc3c(ccc4cnc(Nc5cccc(S(C)(=O)=O)c5)nc43)s2)CC1 [Compound V-147] | < 1000
10 | CS(=O)(=O)c1cccc(Nc2ncc3ccc4sc(C(=O)N5CCC(O)C5)cc4c3n2)c1 (centres unmarked) [Compound V-156] | < 1000
11 | CC(C)(C)c1cccc(Nc2ncc3ccc4sc(C(=O)N5CCCNCC5)cc4c3n2)c1 [Compound V-109] | < 1000
12 | CC(=O)N1CCC(CNC(=O)c2cc3c(ccc4cnc(Nc5cccc(C(C)(C)C)c5)nc43)s2)CC1 [Compound V-118] | < 1000
13 | CS(=O)(=O)c1cccc(Nc2ncc3ccc4sc(C(=O)NCCN5CCNC5=O)cc4c3n2)c1 [Compound V-145] | < 1000
14 | CC(=O)N1CCC(CNC(=O)c2cc3c(ccc4cnc(Nc5cccc(C(C)(C)C)c5)nc43)s2)C1 (centres unmarked) [Compound V-119] | < 1000
15 | CS(=O)(=O)c1cccc(Nc2ncc3ccc4sc(C(=O)N5CCCNCC5)cc4c3n2)c1 [Compound V-136] | < 1000
16 | O=C(c1cc2c(ccc3cnc(Nc4cccc(Cc5ccccc5)c4)nc32)s1)N1CCNCC1 [Compound V-87] | < 1000
17 | CS(=O)(=O)c1cccc(Nc2ncc3ccc4sc(C(=O)NC5CCC(O)CC5)cc4c3n2)c1 (centres unmarked) [Compound V-151] | < 1000
18 | O=C(c1cc2c(ccc3cnc(NCCc4ccccn4)nc32)s1)N1CCNCC1 [Compound V-179] | < 1000
19 | O=C(c1cc2c(ccc3cnc(Nc4cccc(Oc5ccccc5)c4)nc32)s1)N1CCNCC1 [Compound V-84] | < 1000
20 | CC(C)(C)c1cccc(Nc2ncc3ccc4sc(C(=O)N5CC[C@@H](N)C5)cc4c3n2)c1 [Compound V-111] | < 1000
21 | O=C(c1cc2c(ccc3cnc(NCCc4cccc(Cl)c4)nc32)s1)N1CCNCC1 [Compound V-167] | < 1000

Row | SMILES | Ki [nM]
22 | CC(=O)NCCNC(=O)c1cc2c(ccc3cnc(Nc4cccc(S(C)(=O)=O)c4)nc32)s1 [Compound V-135] | < 1000
23 | Cc1cscc1-c1cccc(Nc2ncc3ccc4sc(C(=O)N5CCNCC5)cc4c3n2)c1 [Compound V-96] | < 1000
24 | NC1CCN(C(=O)c2cc3c(ccc4cnc(Nc5cccc(Oc6ccccc6)c5)nc43)s2)C1 (centres unmarked) [Compound V-85] | < 1000
25 | C[C@@H]1CN(C(=O)c2cc3c(ccc4cnc(Nc5cccc(S(C)(=O)=O)c5)nc43)s2)C[C@H](C)O1 [Compound V-143] | < 1000
26 | O=C(c1cc2c(ccc3cnc(NCCc4ccc(F)cc4)nc32)s1)N1CCNCC1 [Compound V-180] | < 1000
27 | O=C(c1cc2c(ccc3cnc(NCCc4ccccc4)nc32)s1)N1CCNCC1 [Compound V-125] | < 1000
28 | CN1CCN(C(=O)c2cc3c(ccc4cnc(Nc5cccc(C(C)(C)C)c5)nc43)s2)CC1 [Compound V-56] | < 1000
29 | CN(C)CCC(=O)Nc1cccc(Nc2ncc3ccc4sc(C(=O)N5CCOCC5)cc4c3n2)c1 [Compound V-71] | < 1000
30 | CN1CCN(C(=O)c2cc3c(ccc4cnc(Nc5cccc(Oc6ccccc6)c5)nc43)s2)CC1 [Compound V-83] | < 1000
31 | CC(C)N(C)C(=O)c1cc2c(ccc3cnc(Nc4cccc(S(C)(=O)=O)c4)nc32)s1 [Compound V-140] | < 1000
32 | CS(=O)(=O)c1cccc(Nc2ncc3ccc4sc(C(=O)NCC5CCNCC5)cc4c3n2)c1 [Compound V-149] | < 1000
33 | NC1CCN(C(=O)c2cc3c(ccc4cnc(Nc5cccc(F)c5)nc43)s2)C1 (centres unmarked) [Compound V-74] | < 1000
34 | O=C(c1cc2c(ccc3cnc(Nc4cccc(-c5ccccc5)c4)nc32)s1)N1CCNCC1 [Compound V-80] | < 1000
35 | COCCNC(=O)c1cc2c(ccc3cnc(Nc4cccc(S(C)(=O)=O)c4)nc32)s1 [Compound V-134] | < 1000
36 | O=C(c1ccc(Nc2ncc3ccc4sc(C(=O)N5CCNCC5)cc4c3n2)cc1)N1CCOCC1 [Compound V-120] | < 1000
37 | COCCCNCCC(=O)Nc1cccc(Nc2ncc3ccc4sc(C(=O)N5CCOCC5)cc4c3n2)c1 [Compound V-77] | < 1000
38 | NS(=O)(=O)c1cccc(Nc2ncc3ccc4nc(C(=O)N5CCNCC5)sc4c3n2)c1 [Compound V-177] | < 1000
39 | Cc1ccccc1-c1cccc(Nc2ncc3ccc4sc(C(=O)N5CCNCC5)cc4c3n2)c1 [Compound V-90] | < 1000
40 | CC(=O)NC1CCN(C(=O)c2cc3c(ccc4cnc(Nc5cccc(S(C)(=O)=O)c5)nc43)s2)C1 (centres unmarked) [Compound V-148] | < 1000
41 | O=C(c1cc2c(ccc3cnc(NCCc4ccc(O)cc4)nc32)s1)N1CCNCC1 [Compound V-182] | < 1000
42 | CS(=O)(=O)c1cccc(Nc2ncc3ccc4sc(C(=O)N5CCC[C@H]5CO)cc4c3n2)c1 [Compound V-142] | < 1000

Row | SMILES | Ki [nM]
43 | COCCNCCC(=O)Nc1cccc(Nc2ncc3ccc4sc(C(=O)N5CCOCC5)cc4c3n2)c1 [Compound V-76] | < 1000
44 | CS(=O)(=O)c1cccc(Nc2ncc3ccc4sc(C(=O)N5CCNC(=O)C5)cc4c3n2)c1 [Compound V-131] | < 1000
45 | CC(C)Oc1cccc(Nc2ncc3ccc4sc(C(=O)N5CCNCC5)cc4c3n2)c1 [Compound V-102] | < 1000
46 | COCCN(C)C(=O)c1cc2c(ccc3cnc(Nc4cccc(S(C)(=O)=O)c4)nc32)s1 [Compound V-139] | < 1000
47 | CS(=O)(=O)c1cccc(Nc2ncc3ccc4sc(C(=O)N5CCC(C(N)=O)CC5)cc4c3n2)c1 [Compound V-144] | < 1000
48 | CC(C)(C)c1cccc(Nc2ncc3ccc4sc(C(=O)NCC5CCNCC5)cc4c3n2)c1 [Compound V-107] | < 1000
49 | O=C(c1cc2c(ccc3cnc(NC4Cc5ccccc5C4)nc32)s1)N1CCNCC1 [Compound V-172] | < 1000
50 | CS(=O)(=O)c1cccc(Nc2ncc3ccc4sc(C(=O)N5CCC(O)CC5)cc4c3n2)c1 [Compound V-154] | < 1000
51 | CC(=O)Nc1cccc(Nc2ncc3ccc4sc(C(=O)N5CCOCC5)cc4c3n2)c1 [Compound V-68] | < 1000
52 | O=C(c1cc2c(ccc3cnc(NCCc4ccc(Cl)cc4)nc32)s1)N1CCNCC1 [Compound V-159] | < 1000
53 | CC(C)c1cccc(Nc2ncc3ccc4sc(C(=O)N5CCNCC5)cc4c3n2)c1 [Compound V-81] | < 1000
54 | O=C(CCN1CCOCC1)Nc1cccc(Nc2ncc3ccc4sc(C(=O)N5CCOCC5)cc4c3n2)c1 [Compound V-69] | < 1000
55 | CC(=O)N1CCCN(C(=O)c2cc3c(ccc4cnc(Nc5cccc(C(C)(C)C)c5)nc43)s2)CC1 [Compound V-106] | < 1000
56 | O=C(c1cc2c(ccc3cnc(Nc4cccc(-c5ccccc5)c4)nc32)s1)N1CCOCC1 [Compound V-58] | < 1000
57 | CC(C)(C)OC(=O)NC1CCN(C(=O)c2cc3c(ccc4cnc(Nc5cccc(-c6ccccc6)c5)nc43)s2)C1 (centres unmarked) [Compound V-60] | < 1000
58 | CS(=O)(=O)c1cccc(Nc2ncc3ccc4sc(C(=O)N5CCCC5)cc4c3n2)c1 [Compound V-130] | < 1000
59 | COc1ccc(CCNc2ncc3ccc4sc(C(=O)N5CCNCC5)cc4c3n2)cc1 [Compound V-175] | < 1000
60 | CN1CCN(c2cccc(Nc3ncc4ccc5sc(C(=O)N6CCNCC6)cc5c4n3)c2)CC1 [Compound V-114] | < 1000
61 | O=C(c1cc2c(ccc3cnc(Nc4cccc(Br)c4)nc32)s1)N1CCNCC1 [Compound V-89] | < 1000
62 | CN(C)C(=O)c1cc2c(ccc3cnc(Nc4cccc(S(C)(=O)=O)c4)nc32)s1 [Compound V-141] | < 1000
